Patent US10662214B2, “Compound of 4′-thionucleoside, as well as preparation method therefor, pharmaceutical composition thereof and application thereof” (Sichuan Kelun-Biotech Biopharmaceutical Co., Ltd., priority 2015, dated 2020)

Key:
[1] = Intravenous toxicity test in mice (administration for 7 days); type: in vivo; details: mouse, in vivo, iv
Text: This test was used to investigate the toxic reactions after intravenous administration of compound C8 to normal KM mice for 7 consecutive days.
KM mice passing the quarantine control were randomized into 4 groups (3 mice/gender/group). The test compound and vehicle control were formulated according to Experimental example 2. The mortality, appearance, behavior, mental status, secretion and excreta etc. of the animals were observed every day for 7 consecutive days after the administration, and the animals were anatomized on day 8.

[2] = Oral toxicity test in mice (administration for 7 days); type: in vivo; details: once per day for 7 days
Protocol: Normal Male and female Kunming mice (SPF grade, obtained from Laboratory Animal Center in Sichuan Academy of Chinese Medicine Science) were randomized by weight into groups. The test compound and vehicle control were formulated according to Experimental example 2. The dosage volume was 10 mL/kg, and the administration was performed by oral gavage, once per day for 7 consecutive days.

[3] = test system: colorectal cancer cell HCT-15; test: CCK-8 inhibition of proliferation, HCT-15; type: cell-based, human; details: for inhibitory effect on colorectal cancer cell HCT-15 (in words): FIG. 1: 5-10000 nM; for IC50: Homo sapiens, HCT-15, CCK-8, 72 h incubation
Protocol: (§1) The tumor cell lines employed in the present experiment were gastric cancer cell NCI-N87 (obtained from Guangzhou Jennio Biological Technology Co., Ltd.), colorectal cancer cell HCT-116 (obtained from Chengdu Center for Safety Evaluation of Drugs), colorectal cancer cell HCT-15 and pancreatic cancer cell BxPC-3 (both obtained from ATCC, US).
(§2) Each of the cell lines is cultured in a corresponding culture medium (RPMI-1640, IMDM and L-15 culture medium (manufacturer: Gibco)) supplemented with 10% heat inactivated Fetal Bovine Serum (manufacturer: Sigma), in an incubator at 37° C. and 5% CO2.
(§3) For each type of tumor cells, a blank group, a vehicle group (containing 1‰ DMSO) and 8 groups with a test compound at concentrations of 5 nM, 10 nM, 50 nM, 100 nM, 500 nM, 1000 nM, 5000 nM, and 10000 nM (with each concentration in triplicate) were set.
(§4) Appropriate amounts of test compounds were weighted, and dissolved in DMSO (cell culture grade, Sigma) to prepare stock solutions of various concentration gradients according to desired concentrations. During incubation, they were diluted by 1000 times as necessary, and incubation solutions with various drug concentrations were prepared (compound stock solution:medium containing 2% FBS=1:1000).
(§5) The experiment was performed according to a CCK-8 method as described below. Cancer cells to be tested were seeded in a 96-well culture plate at a concentration of 5˜10×10^4/mL (100 μL/well), followed by incubation at 37° C. and 5% CO2 for 24 h. The medium was discarded, and incubation solutions with different drug concentrations (200 μL) were respectively added to each well, and the cells were further incubated for 72 h. After the incubation, a CCK-8 solution (20 μL/well) was added to each well to be tested, and the incubation was continued for 4 h in the incubator. OD values at two wavelengths (Detection wavelength: 450 nm, and reference wavelength: 650 nm) were determined on a multifunctional fully-automatic microplate reader.
(§6) The inhibitory rate of tumor cell growth was calculated according to the following formula: Inhibitory rate=[(ODvehicle−ODblank)−(ODdrug−ODblank)]/(ODvehicle−ODblank)*100%
(§7) Based on the inhibitory rate, a concentration-inhibitory rate curve was fit using GraphPad prism 5.0 software, and IC50 was calculated.

[4] = test system: gastric cancer cell NCI-N87; test: CCK-8 inhibition of proliferation, NCI-N87; type: cell-based, human; details: for inhibitory effect on gastric cancer cell NCI-N87 (in words): FIG. 1: 5-10000 nM; for IC50: Homo sapiens, NCI-N87, CCK-8, 72 h incubation
Protocol: as §1, §2, §3, §4, §5, §6, §7

[5] = test system: pancreatic cancer cell BxPC-3; test: CCK-8 inhibition of proliferation, BxPC-3; type: cell-based, human; details: for inhibitory effect on pancreatic cancer cell BxPC-3 (in words): FIG. 1: 5-10000 nM; for IC50: Homo sapiens, BXPC-3, CCK-8, 72 h incubation
Protocol: as §1, §2, §3, §4, §5, §6, §7

Row | Structure (SMILES) | body weight decrease on day 8, female mice [1] [%] | body weight decrease on day 8, male mice [1] [%] | symptoms observed on day 8 ([1]; 20 mg/kg) | dosage at which death of animals occurred ([2]; oral gavage) | Results: mortality (3 Male + 3 Female) ([2]; ~77 μmol/kg oral gavage) | inhibitory effect on colorectal cancer cell HCT-15 (in words) [3] | IC50 [3] [µM] | inhibitory effect on gastric cancer cell NCI-N87 (in words) [4] | IC50 [4] [µM] | inhibitory effect on pancreatic cancer cell BxPC-3 (in words) [5] | IC50 [5] [µM]
1 | Nc1ccn([C@@H]2S[C@H](CO)[C@@H](O)[C@@H]2F)c(=O)n1 [Compound A, 1-((2R,3S,4S,5R)-3-fluoro-4-hydroxy-5-(hydroxymethyl)tetrahydrothiophen-2-yl)cytosine, reference compound] | 20.2 | 18.1 | a hunched stance and weight loss | about 77 μmol/kg | symptoms, and two |  |  |  |  |  | 
2 | C[C@H](NP(=O)(OC[C@H]1S[C@@H](n2ccc(N)nc2=O)[C@@H](F)[C@@H]1O)Oc1ccccc1)C(=O)OCc1ccccc1 (stereo partly drawn) [Compound C2, (S)-benzyl 2-(((((2R,3S,4S,5R)-5-(4-amino-2-oxopyrimidin-1(2H)-yl)-4-fluoro-3-hydroxytetrahydrothiophen-2-yl)methoxy)(phenoxy)phosphoryl)amino)propanoate] |  |  |  |  |  | excellent inhibitory effects | 2.97 | excellent inhibitory effects | 0.25 | excellent inhibitory effects | 1.28
3 | CC(C)OC(=O)[C@H](C)N[P@@](=O)(OC[C@H]1S[C@@H](n2ccc(N)nc2=O)[C@@H](F)[C@@H]1O)Oc1ccc2c(c1)OCO2 [Compound C13, (S)-isopropyl 2-(((R)-(((2R,3S,4S,5R)-5-(4-amino-2-oxopyrimidin-1 (2H)-yl)-4-fluoro-3-hydroxytetrahydrothiophen-2-yl)methoxy)(benzo[d][1,3]dioxol-5-yloxy)phosphoryl)amino)propanoate] |  |  |  |  |  |  |  | excellent inhibitory effect | 0.55 |  | 
4 | CC(C)OC(=O)[C@H](C)N[P@](=O)(OC[C@H]1S[C@@H](n2ccc(N)nc2=O)[C@@H](F)[C@@H]1O)Oc1ccc2c(c1)OCO2 [Compound C14, (S)-isopropyl 2-(((S)-(((2R,3S,4S,5R)-5-(4-amino-2-oxopyrimidin-1(2H)-yl)-4-fluoro-3-hydroxytetrahydrothiophen-2-yl)methoxy)(benzo[d][1,3]dioxol-5-yloxy)phosphoryl)amino)propanoate] |  |  |  |  |  | excellent inhibitory effects | 9.78 | excellent inhibitory effects | 0.18 | excellent inhibitory effects | 2.82
5 | C[C@H](NP(=O)(OC[C@H]1S[C@@H](n2ccc(N)nc2=O)[C@@H](F)[C@@H]1O)Oc1ccccc1)C(=O)OCc1ccc(F)cc1 (stereo partly drawn) [Compound C15, (2S)-4-fluorobenzyl 2-(((((2R,3S,4S,5R)-5-(4-amino-2-oxopyrimidin-1(2H)-yl)-4-fluoro-3-hydroxytetrahydrothiophen-2-yl)methoxy)(phenoxy)phosphoryl)amino)propanoate] |  |  |  |  |  | excellent inhibitory effects | 4.08 | excellent inhibitory effects | 0.24 | excellent inhibitory effects | 1.8
6 | CC(C)OC(=O)[C@H](C)NP(=O)(OC[C@H]1S[C@@H](n2ccc(N)nc2=O)[C@@H](F)[C@@H]1O)Oc1cccc2c1OCCO2 (stereo partly drawn) [Compound C16, (S)-isopropyl 2-(((((2R,3S,4S,5R)-5-(4-amino-2-oxopyrimidin-1(2H)-yl)-4-fluoro-3-hydroxytetrahydrothiophen-2-yl)methoxy)((2,3-dihydrobenzo[b][1,4]dioxin-5-yl)oxy)phosphoryl)amino)propanoate] |  |  |  |  |  |  |  | excellent inhibitory effects | 0.3 | excellent inhibitory effects | 1.15
7 | CC(C)OC(=O)[C@H](C)NP(=O)(OC[C@H]1S[C@@H](n2ccc(N)nc2=O)[C@@H](F)[C@@H]1O)Oc1ccc(F)c2c1CCO2 (stereo partly drawn) [Compound C17, (S)-isopropyl 2-(((((2R,3S,4S,5R)-5-(4-amino-2-oxopyrimidin-1(2H)-yl)-4-fluoro-3-hydroxytetrahydrothiophen-2-yl)methoxy)((7-fluoro-2,3-dihydrobenzofuran-4-yl)oxy)phosphoryl)amino)propanoate] |  |  |  |  |  |  |  | excellent inhibitory effects | 0.63 | excellent inhibitory effects | 3.8
8 | CC(C)OC(=O)[C@H](C)NP(=O)(OC[C@H]1S[C@@H](n2ccc(N)nc2=O)[C@@H](F)[C@@H]1O)Oc1ccc2c(c1)OCC2 (stereo partly drawn) [Compound C18, (S)-isopropyl 2-(((((2R,3S,4S,5R)-5-(4-amino-2-oxopyrimidin-1(2H)-yl)-4-fluoro-3-hydroxytetrahydrothiophen-2-yl)methoxy)((2,3-dihydrobenzofuran-6-yl)oxy)phosphoryl)amino)propanoate] |  |  |  |  |  |  |  |  |  | excellent inhibitory effect | 2.74
9 | CC(C)OC(=O)[C@H](C)NP(=O)(OC[C@H]1S[C@@H](n2ccc(N)nc2=O)[C@@H](F)[C@@H]1O)Oc1ccc2ccoc2c1 (stereo partly drawn) [Compound C19, (S)-isopropyl 2-(((((2R,3S,4S,5R)-5-(4-amino-2-oxopyrimidin-1(2H)-yl)-4-fluoro-3-hydroxytetrahydrothiophen-2-yl)methoxy)(benzofuran-6-yloxy)phosphoryl)amino)propanoate] |  |  |  |  |  |  |  | excellent inhibitory effects | 0.35 | excellent inhibitory effects | 0.68
